US20070116654A1, “Cosmetics” (SHISEIDO CO., LTD., priority 2001, published 2007)

Tested on: back of a marmot
Test: Continuous skin irritation test of retinol
Format: in vivo
Settings: polar oil blend ratio 8 mass %, 0.2 mass % retinol
Description: “Continuous Skin Irritation Test”
0.05 ml of a sample solution containing a lipophilic drug was applied on a 2×2 cm area of the back of a marmot (first application).
24 hours later, the second application was done.
Again, 24 hours later, the third application was done.
Before the second application, before the third application, and 24 hours after the third application, skin reactions such as erythema and edema was observed by naked eye. Evaluation was conducted based on the following criteria, and the average of the three scores was used as the skin reaction score.
Evaluation Criteria of the Skin Reaction

CCCCCCCC(=O)OCC(COC(=O)CCCCCCC)(COC(=O)CCCCCCC)COC(=O)CCCCCCC [pentaerythrityl tetraoctanoate]
skin irritation suppression effect (retinol), FIG. 9: superior skin irritation suppression effect
